Test results: ChEMBL document CHEMBL1126863 (J Med Chem, 1993)
One block for each compound: values may come before it. Square brackets hold non-standard residues; d marks the D form. Peptide text beside a SMILES is read from it. pGlu = O=C1CC[C@@H](C(=O)O)N1

Experiments:
[1] = target: Substance-P receptor (Cavia porcellus) (UniProt P30547); assay: Evaluated for the binding affinity against NK1 receptor at 1 uM
Target sequence in this assay (P30547 whole entry, looked up): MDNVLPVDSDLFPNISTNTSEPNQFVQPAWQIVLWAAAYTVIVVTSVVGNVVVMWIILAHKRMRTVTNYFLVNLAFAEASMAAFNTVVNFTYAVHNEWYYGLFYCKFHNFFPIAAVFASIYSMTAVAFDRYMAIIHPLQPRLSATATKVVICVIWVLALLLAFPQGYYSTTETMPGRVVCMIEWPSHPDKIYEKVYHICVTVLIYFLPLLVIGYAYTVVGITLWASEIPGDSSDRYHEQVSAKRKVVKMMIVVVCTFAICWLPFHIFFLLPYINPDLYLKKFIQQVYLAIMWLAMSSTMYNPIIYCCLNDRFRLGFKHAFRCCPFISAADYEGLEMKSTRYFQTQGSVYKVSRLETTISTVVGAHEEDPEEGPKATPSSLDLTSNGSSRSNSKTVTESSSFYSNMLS

[2] = target: T1, Substance-P receptor (Cavia porcellus, UniProt P30547); assay: Evaluated for the binding affinity against NK1 receptor
T1 sequence (P30547 whole entry): as the sequence (P30547 whole entry, looked up) above

[3] = target: T1, Substance-P receptor; assay: Evaluated for the binding affinity towards NK1 receptor in the striatal membranes of guinea pig; format: cell membranes, Striatum, Membrane
[4] = target: Substance-P receptor (Cavia porcellus) (UniProt P30547); settings: Striatum, Membrane, 10 uM
Target sequence in this assay (P30547 whole entry): as the sequence (P30547 whole entry, looked up) above
Description: Evaluated for the binding affinity towards NK1 receptor in the striatal membranes of guinea pig at 10 uM

[5] = target: Substance-P receptor (Cavia porcellus) (UniProt P30547); assay: Evaluated for the binding affinity against NK1 receptor
Target sequence in this assay (P30547 whole entry, looked up): as above

- inhibition [1]: 15%
Structure (SMILES): CC[C@H](C)[C@H](NC(=O)[C@H](Cc1ccccc1)NC(=O)[C@H](C)NC(=O)[C@H](CC(=O)O)NC(=O)[C@H](CCCCN)NC(=O)[C@H](CO)NC(=O)[C@@H]1CCCN1C(=O)[C@@H]1CCC(=O)N1)C(=O)NCC(=O)N[C@@H](CC(C)C)C(=O)N[C@@H](CCSC)C(N)=O ([pGlu]PSKDAFIGLM-NH2)

- Ki [2]: 20 nM
Structure (SMILES): CC(C)C[C@H](NC(=O)CN(C)C(=O)[C@H](Cc1ccccc1)NC(=O)[C@H](Cc1ccccc1)NC(=O)[C@H](CCC(N)=O)NC(=O)[C@H](CCC(N)=O)NC(=O)[C@@H]1CCCN1C(=O)[C@H](CCCCN)NC(=O)[C@@H]1CCCN1C(=O)[C@@H](N)CCCNC(=N)N)C(=O)N[C@@H](CCS(C)(=O)=O)C(N)=O

- Ki [3]: 0.17 nM
Structure (SMILES): COc1ccccc1CN[C@H]1CCCN[C@H]1c1ccccc1 (stereo in doubt; 5) [CP-99994]

- inhibition [4]: 50%
Structure (SMILES): COc1ccccc1CN[C@@H]1CCCN[C@@H]1c1ccccc1

- Ki [3]: 0.27 nM
Structure (SMILES): COc1ccccc1CN[C@H]1CCCN[C@H]1c1ccccc1 (stereo in doubt; 6b) [CP-99994]

- Kd [3]: 0.32 nM
Structure (SMILES): [3H]c1cc([3H])cc([C@@H]2NCCC[C@@H]2NCc2ccccc2OC)c1

- Ki [5]: 3700 nM
Structure (SMILES): CSCC[C@H](NC(=O)[C@H](CC(C)C)NC(=O)CNC(=O)[C@@H](NC(=O)[C@H](Cc1ccccc1)NC(=O)[C@H](CO)NC(=O)[C@H](CC(=O)O)NC(=O)[C@@H](NC(=O)[C@H](CCCCN)NC(=O)[C@@H](N)Cc1cnc[nH]1)[C@@H](C)O)C(C)C)C(N)=O [NEUROKININ A]
